# Source: US11547703B2, “Substituted fused heteroaromatic tricyclic compounds as kinase inhibitors and the use thereof” (IMPACT THERAPEUTICS (SHANGHAI), INC, priority 2017, dated 2023)
# Tests used:
# ATM enzyme (human) = ATM enzyme (human) (Homo sapiens, UniProt Q13315); assay: ATM kinase assay (HTRF, phosphorylation of GST-cMyc-p53); format: biochemical; conditions: for inhibition(%) of ATM kinase / inhibition at 1 µM: detected concentration 1 μm
# Experimental: ATM enzyme (human) was added to the reaction solution containing 30 nM GST-cMyc-p53 and 10 μM Mg/ATP, and then 50 times the concentration of the tested compound (or reference compound AZD0156) dissolved in 100% DMSO was added to the final concentration of 10 μM/1 μM/0.1 μM/0.01 μM. The reaction was initiated by the addition of a Mg/ATP mixture and incubation for 30 minutes at room temperature, the reaction was quenched by the addition of a stop solution containing EDTA. Finally, the detection buffer containing the d2-labeled anti-GST monoclonal antibody and the europium-labeled anti-phospho p53 (Ser15) antibody was added. The plate was then read in time resolved fluorescence mode and the homogeneous time resolved fluorescence (HTRF) signal was determined according to the equation: HTRF=10000×(Em665nm/Em620nm). Each compound sample was repeated in duplicate. The negative control contained all components except the ATM enzyme, and the positive control contained all components. All reactions were quenched by adding EDTA.
# The compounds were serially diluted to 10 concentrations with 100% DMSO at the ratio of 1:3 and 1:10 (the last concentration was negative control of DMSO), then added to the ATM buffer and diluted to a final concentration of 10, 3, 1, 0.3, 0.1, 0.03, 0.01, 0.003, 0.001 and 0 μM, respectively. ATM kinase inhibition was detected by using the method described above. The curve equation for calculating IC50 value is as follows: […]
# wherein, C is the concentration of compound and D is the slope factor. Table 2 summarizes the IC50 values of compounds inhibiting ATM kinase.
# [1] = tested on: human colon cancer cell SW620; assay: MTT assay, growth of SW620 cells, compounds combined with CPT-11; format: cell-based; conditions: 205 nM CPT-11, 5 days, MTT
# Experimental: (§1) SW620 cells were digested by trypsinase, centrifuged at 800 rpm for 5 minutes, the supernatant was discarded, resuspended with fresh medium (RPMI 1640 medium+10% FBS) and counted. The cells were seeded into 96-well cell culture plate with appropriate cell density and incubated overnight in a 37° C. 5% CO2 incubator. The stock solutions of the tested compound and the reference compound AZD0156 were serially diluted to 8 concentrations by DMSO at the ratios of 1:3 and 1:10, respectively, and the last concentration was negative control of DMSO (0 μM, the final concentration of DMSO was 1%). 5 μL of each concentration was added to 120 μL of medium (25 times diluted) and mixed by shaking. The overnight cells were taken and the culture medium was removed, 195 μL of fresh medium containing 205 nM CPT-11 was added to each well, and 5 μL of diluted medium containing the corresponding concentration of the tested sample was added respectively, and the culture plate was then placed in the 5% CO2 cell culture incubator at 37° C. for 5 days. After removing the original solution, 100 μL of fresh serum-free DMEM medium containing MTT (0.5 mg/mL) was added to each well, the culture was continued. After 4 hours, the original solution was removed, 100 μL of DMSO was added into each well, the 96-well plates were shaken away from light for 10 minutes and placed in a multi-function reader to read the absorbance at the wavelength of 552/630/690 nm. GraphPad Prism 6.0 was used to analyze the data. The inhibitory activity of compounds on cell proliferation was plotted based on cell viability and compound concentration. The IC50 value was fitted by a sigmoidal dose response curve equation Y=100/(1+10^(Log C−Log IC50)), where C was the concentration of compound.
# [2] = tested on: human breast cancer cell MDA-MB-468; assay: MTT assay, growth of MDA-MB-468 cells; format: cell-based; conditions: single agent, 7 days, MTT
# Experimental: as §1, with “MDA-MB-468 cells” for “SW620 cells”, “1:10, respectively:” for “1:10, respectively, and”, “medium (PRMI 1640+5% FBS)” for “medium containing 205 nM CPT-11”, “for 7 days (On the fourth day, the medium containing drugs was removed and fresh medium containing drugs was added for continuous cultivation).” for “for 5 days.”
# [3] = Homo sapiens, MDA-MB-468, 168 h
# Chain of ATM enzyme (human) (Q13315 whole entry): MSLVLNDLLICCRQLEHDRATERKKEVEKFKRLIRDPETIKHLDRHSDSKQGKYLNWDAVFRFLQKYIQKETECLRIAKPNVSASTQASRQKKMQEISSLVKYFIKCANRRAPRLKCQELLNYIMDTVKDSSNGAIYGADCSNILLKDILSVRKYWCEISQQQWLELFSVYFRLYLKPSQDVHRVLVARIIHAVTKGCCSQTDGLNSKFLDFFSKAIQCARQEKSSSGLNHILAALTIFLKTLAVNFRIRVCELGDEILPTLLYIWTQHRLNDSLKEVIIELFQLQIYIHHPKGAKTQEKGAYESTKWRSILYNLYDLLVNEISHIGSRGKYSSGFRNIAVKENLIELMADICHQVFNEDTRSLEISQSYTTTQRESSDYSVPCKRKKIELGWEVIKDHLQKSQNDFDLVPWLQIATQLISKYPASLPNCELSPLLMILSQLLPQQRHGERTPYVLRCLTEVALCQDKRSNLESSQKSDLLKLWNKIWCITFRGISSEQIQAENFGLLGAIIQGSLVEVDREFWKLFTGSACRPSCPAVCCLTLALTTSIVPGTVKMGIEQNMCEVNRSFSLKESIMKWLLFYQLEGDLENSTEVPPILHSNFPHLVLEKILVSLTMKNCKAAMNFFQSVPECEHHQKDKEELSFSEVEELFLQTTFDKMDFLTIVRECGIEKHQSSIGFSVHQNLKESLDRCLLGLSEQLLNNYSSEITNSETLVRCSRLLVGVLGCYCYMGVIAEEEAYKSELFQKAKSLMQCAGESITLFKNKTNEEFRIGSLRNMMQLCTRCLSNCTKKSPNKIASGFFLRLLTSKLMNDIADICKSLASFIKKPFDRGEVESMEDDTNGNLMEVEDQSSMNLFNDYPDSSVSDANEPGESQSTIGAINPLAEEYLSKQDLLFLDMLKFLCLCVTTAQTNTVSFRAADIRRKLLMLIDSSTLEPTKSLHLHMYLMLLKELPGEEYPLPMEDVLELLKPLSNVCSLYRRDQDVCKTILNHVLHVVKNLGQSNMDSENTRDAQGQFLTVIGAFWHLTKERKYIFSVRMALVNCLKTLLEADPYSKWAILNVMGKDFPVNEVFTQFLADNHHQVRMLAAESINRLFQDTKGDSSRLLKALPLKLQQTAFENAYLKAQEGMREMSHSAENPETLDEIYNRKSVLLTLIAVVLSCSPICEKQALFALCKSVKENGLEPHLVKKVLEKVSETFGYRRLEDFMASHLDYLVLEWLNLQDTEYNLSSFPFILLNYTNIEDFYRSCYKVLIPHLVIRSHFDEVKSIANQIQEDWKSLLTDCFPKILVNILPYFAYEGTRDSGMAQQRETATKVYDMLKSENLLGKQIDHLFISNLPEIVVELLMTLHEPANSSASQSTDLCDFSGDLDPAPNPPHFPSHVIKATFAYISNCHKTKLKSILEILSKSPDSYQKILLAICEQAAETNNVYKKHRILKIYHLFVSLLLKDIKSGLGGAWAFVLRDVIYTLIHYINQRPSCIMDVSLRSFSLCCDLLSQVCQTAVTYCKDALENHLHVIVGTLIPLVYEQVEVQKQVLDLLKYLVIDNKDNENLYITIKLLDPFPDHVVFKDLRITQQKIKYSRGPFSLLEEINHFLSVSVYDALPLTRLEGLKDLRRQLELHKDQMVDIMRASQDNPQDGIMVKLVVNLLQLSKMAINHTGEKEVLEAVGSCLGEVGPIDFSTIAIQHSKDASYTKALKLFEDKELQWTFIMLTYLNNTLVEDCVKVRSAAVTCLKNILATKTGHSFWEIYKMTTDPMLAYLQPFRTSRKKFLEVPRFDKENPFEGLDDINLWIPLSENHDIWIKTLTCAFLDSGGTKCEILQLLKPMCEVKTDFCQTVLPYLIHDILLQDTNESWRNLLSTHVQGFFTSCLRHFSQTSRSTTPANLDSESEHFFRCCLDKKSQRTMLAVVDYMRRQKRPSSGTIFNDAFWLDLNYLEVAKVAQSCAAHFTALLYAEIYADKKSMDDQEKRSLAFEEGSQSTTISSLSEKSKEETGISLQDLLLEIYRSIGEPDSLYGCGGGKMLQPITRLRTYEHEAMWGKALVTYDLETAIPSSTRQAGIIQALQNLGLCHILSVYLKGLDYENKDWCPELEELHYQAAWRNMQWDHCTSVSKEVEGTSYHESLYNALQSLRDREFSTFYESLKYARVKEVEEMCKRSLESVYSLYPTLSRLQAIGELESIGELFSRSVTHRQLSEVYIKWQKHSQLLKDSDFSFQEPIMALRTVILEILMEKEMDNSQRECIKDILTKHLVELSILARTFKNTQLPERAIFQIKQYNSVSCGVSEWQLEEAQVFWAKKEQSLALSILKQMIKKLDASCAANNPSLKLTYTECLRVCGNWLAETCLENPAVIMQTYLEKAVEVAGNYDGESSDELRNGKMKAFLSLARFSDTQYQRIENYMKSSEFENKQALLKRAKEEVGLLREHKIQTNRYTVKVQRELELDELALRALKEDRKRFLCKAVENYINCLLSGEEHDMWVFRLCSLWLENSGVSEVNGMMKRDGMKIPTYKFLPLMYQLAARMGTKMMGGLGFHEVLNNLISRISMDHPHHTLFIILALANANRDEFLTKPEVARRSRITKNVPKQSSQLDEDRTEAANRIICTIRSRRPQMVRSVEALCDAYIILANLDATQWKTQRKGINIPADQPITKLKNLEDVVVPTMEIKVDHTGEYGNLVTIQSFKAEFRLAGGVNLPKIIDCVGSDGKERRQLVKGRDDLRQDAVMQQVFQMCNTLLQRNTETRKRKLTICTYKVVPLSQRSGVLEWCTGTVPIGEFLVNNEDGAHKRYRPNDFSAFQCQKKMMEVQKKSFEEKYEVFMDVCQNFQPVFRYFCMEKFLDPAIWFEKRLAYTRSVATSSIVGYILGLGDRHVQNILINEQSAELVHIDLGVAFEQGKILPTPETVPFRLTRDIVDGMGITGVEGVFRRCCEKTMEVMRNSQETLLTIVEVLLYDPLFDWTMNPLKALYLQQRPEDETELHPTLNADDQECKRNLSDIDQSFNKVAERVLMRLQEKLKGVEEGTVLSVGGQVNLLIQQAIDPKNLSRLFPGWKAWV
Compound,"IC50 ([1]; Homo sapiens, SW-620, 120 h)",inhibition at 1 µM (ATM enzyme (human); 0.5 h),also measured
"CN(C)CCCOc1ccc(-c2ccc3ncc4c(c3c2)n(C2CCOCC2)c(=O)n4C)cn1 [AZD0156, reference compound]",,,inhibition(%) of ATM kinase (ATM enzyme (human)): 100%; IC50 [1]: 8.5 nM; IC50 [2]: 10.6 nM
"CN(C)CCCOc1ccc(-c2ccc3nc4cccc(C5=CCOCC5)c4n3c2)cn1 [Example 1, N,N-dimethyl-3-((5-(9-(3,6-dihydro-2H-pyran-4-yl)benzo[4,5]imidazo[1,2-a]pyridin-2-yl)pyridin-2-yl)oxy)propan-1-amine]",1340 nM,,"IC50 (ATM enzyme (human); 10 concentrations, 10 to 0.001 μM, read-out: IC50 (nM), in vitro inhibitory effect on ATM kinase): 239 nM; inhibition at 10 µM (ATM enzyme (human); 0.5 h, detected concentration 10 μm): 100%; effect on ATM kinase (in words) (ATM enzyme (human); ATM kinase (human) assay): good effect; IC50 [2, 3]: 2800 nM"
"CN(C)CCCOc1ccc(-c2ccc3nc4cccc(C5=CCOCC5)c4n3c2)cc1 [Example 2, N,N-dimethyl-3-(4-(9-(3,6-dihydro-2H-pyran-4-yl)benzo[4,5]imidazo[1,2-a]pyridin-2-yl)phenoxy)propan-1-amine]",1660 nM,81%,
"CN(C)CCCOc1ccc(-c2ccc3nc4cccc(N5CCN(C)CC5)c4n3c2)cc1 [Example 3, N,N-dimethyl-3-(4-(9-(4-methylpiperazin-1-yl)benzo[4,5]imidazo[1,2-a]pyridin-2-yl)phenoxy)propan-1-amine]",563 nM,,"IC50 [2, 3]: 330 nM"
"CN(C)CCCOc1ccc(-c2ccc3nc4cccc(N5CCOCC5)c4n3c2)cc1 [Example 4, N,N-dimethyl-3-(4-(9-morpholinobenzo[4,5]imidazo[1,2-a]pyridin-2-yl)phenoxy)propan-1-amine]",5480 nM,74%,
"CN(C)CCCOc1ccc(-c2ccc3nc4cccc(N5CCCCC5)c4n3c2)cn1 [Example 5, N,N-dimethyl-3-((5-(9-(piperidin-1-yl)benzo[4,5]imidazo[1,2-a]pyridin-2-yl)pyridin-2-yl)oxy)propan-1-amine]",> 10000 nM,61%,
"CN(C)CCCOc1ccc(-c2ccc3nc4cccc(N5CCOCC5)c4n3c2)cn1 [Example 6, N,N-dimethyl-3-((5-(9-morpholinobenzo[4,5]imidazo[1,2-a]pyridin-2-yl)pyridin-2-yl)oxy)propan-1-amine]",2470 nM,77%,
"CN(C)CCCOc1ccc(-c2ccc3nc4cccc(N5CCN(C)CC5)c4n3c2)cn1 [Example 7, N,N-dimethyl-3-((5-(9-(4-methylpiperazin-1-yl)benzo[4,5]imidazo[1,2-a]pyridin-2-yl)pyridin-2-yl)oxy)propan-1-amine]",> 10000 nM,64%,
"C[C@@H]1CN(c2cccc3nc4ccc(-c5ccc(OCCCN(C)C)nc5)cn4c23)C[C@H](C)N1C [Example 8, N,N-dimethyl-3-((5-(9-((3S,5R)-3,4,5-trimethylpiperazin-1-yl)benzo[4,5]imidazo[1,2-a]pyridin-2-yl)pyridin-2-yl)oxy)propan-1-amine]",434 nM,99%,"IC50 [2, 3]: 25.1 nM"
CN(C)CCCOc1ccc(-c2ccc3nc4cccc(CN5CCN(C)CC5)c4n3c2)cn1 [Example 11],,,inhibition(%) of ATM kinase (ATM enzyme (human)): 63%; IC50 [1]: 1040 nM
"CN(C)CCCOc1ccc(-c2ccc3nc4cccc(OC5CCOCC5)c4n3c2)cn1 [Example 13, N,N-dimethyl-3-((5-(9-((tetrahydro-2H-pyran-4-yl)oxy)benzo[4,5]imidazo[1,2-a]pyridin-2-yl)pyridin-2-yl)oxy)propan-1-amine]",1570 nM,86%,
"CN(C)CCCOc1ccc(-c2ccc3nc4cccc(NC5CCOCC5)c4n3c2)cn1 [Example 14, N,N-dimethyl-3-((5-(9-(tetrahydro-2H-pyran-4-ylamino)benzo[4,5]imidazo[1,2-a]pyridin-2-yl)pyridin-2-yl)oxy)propan-1-amine]",> 10000 nM,48%,
"CN(C)C1CCN(c2ccc(-c3ccc4nc5cccc(C6=CCOCC6)c5n4c3)cc2)CC1 [Example 39, N,N-dimethyl-1-(4-(9-(3,6-dihydro-2H-pyran-4-yl)benzo[4,5]imidazo[1,2-a]pyridin-2-yl)phenyl)piperidin-4-amine]",1510 nM,91%,"inhibition at 0.01 µM (ATM enzyme (human); 0.5 h, detected concentration 0.01 μm): 17%; inhibition at 0.1 µM (ATM enzyme (human); 0.5 h, detected concentration 0.1 μm): 62%"
"CN(C)C1CCN(c2ccc(-c3ccc4nc5cccc(C6=CCOCC6)c5n4c3)cn2)CC1 [Example 40, N,N-dimethyl-1-(5-(9-(3,6-dihydro-2H-pyran-4-yl)benzo[4,5]imidazo[1,2-a]pyridin-2-yl)pyridin-2-yl)piperidin-4-amine]",2370 nM,96%,
"CN(C)C1CCN(c2ccc(-c3ccc4nc5cccc(N6CCOCC6)c5n4c3)cc2)CC1 [Example 41, N,N-dimethyl-1-(4-(9-morpholinobenzo[4,5]imidazo[1,2-a]pyridin-2-yl)phenyl)piperidin-4-amine]",3480 nM,82%,
"C[C@@H]1CN(c2cccc3nc4ccc(-c5ccc(OCCCN(C)C)c(F)c5)cn4c23)C[C@H](C)N1C [Example 50, N,N-dimethyl-3-(2-fluoro-4-(9-((3S,5R)-3,4,5-trimethylpiperazin-1-yl)benzo[4,5]imidazo[1,2-a]pyridin-2-yl)phenoxy)propan-1-amine]",> 1000 nM,,"IC50 [2, 3]: > 1000 nM"
"C[C@@H]1CN(c2cccc3nc4ccc(-c5ccc(OCCCN(C)C)c(C(F)(F)F)c5)cn4c23)C[C@H](C)N1C [Example 53, N,N-dimethyl-3-(2-(trifluoromethyl)-4-(9-((3S,5R)-3,4,5-trimethylpiperazin-1-yl)benzo[4,5]imidazo[1,2-a]pyridin-2-yl)phenoxy)propan-1-amine]",162 nM,100%,
"C[C@@H]1CN(c2ncnc3nc4ccc(-c5ccc(N6CCC(N(C)C)CC6)cc5)nn4c23)C[C@H](C)N1C [Example 71, N,N-dimethyl-1-(4-(4-((3 S,5R)-3,4,5-trimethylpiperazin-1-yl)pyridazino[6,1-f]purin-7-yl)phenyl)piperidin-4-amine]",1240 nM,,"IC50 [2, 3]: 1800 nM"
"N,N-dimethyl-1-(2-(trifluoromethyl)-4-(942S,6R)-2,6-dimethylmorpholino)benzo[4,5]imidazo[1,2-a]pyridin-2-yl)phenyl)piperidin-4-amine [Example 54]",,,IC50 [1]: 193 nM; IC50 [2]: 220 nM
"N,N-dimethyl-3-(2-(trifluoromethyl)-4-(942S,6R)-2,6-dimethylmorpholino)benzo[4,5]imidazo[1,2-a]pyridin-2-yl)phenoxy)propan-1-amine [Example 55]",,,IC50 [1]: 228 nM; IC50 [2]: 255 nM
